Experimental data taken from US5489609A (Zaidan Hoijn Seisan Kaihatsu Kagaku Kenkyusho, priority 1992, dated 1996).

How the values were obtained:
[1] = test system: Hepatopathy in mice (carbon tetrachloride); assay: Anti-hepatitis test: hepatopathy in mice (carbon tetrachloride); format: in vivo, ddy strain male mice; conditions: for ALT, mean ± S.D. / AST, mean ± S.D.: 200 mg/kg orally 3 h after carbon tetrachloride, blood 24 h after carbon tetrachloride, * p < 0.05; for suppressory activity (hepatopathy in mice): 200 mg/kg orally, in words
Description: A group of 8 ddy strain male mice (weighing about 30 g) kept fasting from the previous day was treated by intraperitoneal injection of 0.5% carbon tetrachloride in olive oil at a dose of 0.6 ml and thereafter allowed free access to food. Three hours after the administration of carbon tetrachloride, the test compound suspended in powdered gum arabic was given to the animals orally at a dose of 200 mg/kg, and blood samples were drawn from the mice under anesthesia with ether through the abdominal descending aorta 24 hours after the administration of carbon tetrachloride. The collected blood was centrifuged at a rate of 3,000 rpm for 15 min, followed by measurement of the activities of aspartate transaminase (AST) and alanine transaminase (ALT) by means of the Lippie method.

[2] = test system: isolated liver cells of rats; assay: Disorder of isolated liver cells (carbon tetrachloride vapor; ALT and AST leached out); format: cell-based; conditions: for ALT, mean ± S.D. / AST, mean ± S.D.: 37° C., 30 min, * p < 0.05
Description: Isolated liver cells of rats were prepared by means of the Segren's collagenase irrigation method, whereby a liver cell suspension was prepared to a concentration of […]. Into 2 ml of the suspension placed in an Erlenmeyer flask was put a test tube of about 0.5 ml capacity containing a 25% carbon tetrachloride solution in olive oil to saturate the reaction system with carbon tetrachloride vapor, and after the flask was tightly stoppered, preincubation was carried out at 37° C. for 30 min. One ml of a solution of the test compound in Hunk's solution was added to the suspension of liver cells, while 1 ml of Hunk's solution was added to a control. After the reaction was allowed to proceed at 37° C. for 30 min, a specifically determined volume of the reaction solution was pipetted out and immediately centrifuged under 500 g for 30 seconds, and ALT and AST leached out into the supernatant liquid were determined for activity by the Lippie method.

acetaldehyde toxicity = assay: Protective activity against acetaldehyde toxicity (death rate within 24 hours); format: in vivo, Rats; conditions: for Death rate / No. of dead animals (n/10): 30 min before acetaldehyde 1,200 mg/kg, 24 h
Description: Rats kept fasting with a supply of drinking water were weighed and divided into groups in such a manner that the mean body weight was uniform among the groups, with each group consisting of 10 heads. The rats were given acetaldehyde orally at a dose of 1,200 mg/kg, and the death rate within 24 hours was determined, wherein the test drug substances were administered orally 30 min before the application of acetaldehyde, with the vehicle (0.5% aqueous sodium carboxymethylcellulose) alone being given to a control group.

[3] = test system: Stomach injury with hydrochloric acid/ethanol; assay: Anti-ulcer test: stomach injury with hydrochloric acid/ethanol; format: in vivo, male rats of KBL Wistar strain; conditions: for UD50 (mg/kg) (95% C.L.): oral, 30 min before hydrochloric acid/ethanol
Description: The rats were divided into groups each consisting of 8 heads in such a way that their mean body weights were nearly uniform among the groups, treated by oral administration of hydrochloric acid/ethanol (0.15 mole hydrochloric acid solution in 80% ethanol) at a dose of 5 ml/kg body weight and sacrificed through cervical vertebrae dislocation 1 hour after administration. The stomachs were removed and treated with formalin, and individual ulcers formed in the glandular portion of the stomach were measured in length (mm), with the measured ulcer lengths summed for each rat. The test compound was suspended in a 0.5% aqueous solution of sodium carboxymethylcellulose, and the suspension was given to the test group orally at a dose of 10 ml/kg body weight 30 min before administration of hydrochloric acid/ethanol, whereas the vehicle (0.5% aqueous sodium carboxymethyl-cellulose) alone was applied to a control group.

[4] = test system: Stomach injury through water-immersion constraint stress; assay: Anti-ulcer test: stomach injury through water-immersion constraint stress; format: in vivo, male rats of KBL Wistar strain; conditions: for UD50 (mg/kg) (95% C.L.): oral, 30 min before water-soaking constraint
Description: The rats were divided into groups each consisting of 8 heads in such a way that their mean body weights were nearly uniform among the groups, stress-loaded by soaking the animals placed in a stress cage of Univ. of Tokyo type in a water tank at 23° C. up to the xiphoid and then sacrificed through cervical vertebrae dislocation 7.5 hours later. The stomachs were removed and treated with formalin, and individual ulcers formed in the glandular portion of the stomach were measured in length (mm), with the measured ulcer lengths being summed for each rat. The test compound, suspended in a 0.5% aqueous solution of sodium carboxymethylcellulose, was given to the test group orally at a dose of 10 ml/kg body weight 30 min before the water-soaking constraint, whereas the vehicle alone was applied to a control group.

[5] = test system: Rats of KBL Wistar strain; assay: Acute toxicity test; format: in vivo; conditions: 7 day period
Description: Rats of KBL Wistar strain (weighing about […]), divided into groups each consisting of 3 heads, were treated through oral administration of the test compound suspended in powder gum arabic, followed by observation for any abnormalities over a 7 day period to find the number of dead animals.

[6] = Pharmacological tests (general statement on anti-hepatitis, liver function and anti-ulcer activity); format: in vivo; conditions: in words
[7] = conc. of test soln. 0.0125 mg/dl
[8] = conc. of test soln. 0.025 mg/dl
[9] = 50 mg/kg orally, vs Vehicle No. 1
[10] = 150 mg/kg orally, vs Vehicle No. 3
[11] = 100 mg/kg orally, vs Vehicle No. 2

## NCCS(=O)(=O)O [2-Aminoethanesulfonic acid]
[1]
  ALT, mean ± S.D.: 14609.6 ± 1684.5 IU
  AST, mean ± S.D.: 12885.2 ± 2468.3 IU
  suppressory activity (hepatopathy in mice): none of 2-aminoethanesulfonic acid, glutathione and glycyrrhizin that were used as controls at the same dose developed suppressory activity
[2]; [7]
  ALT, mean ± S.D.: 847.6 ± 60.4 IU
  AST, mean ± S.D.: 338.8 ± 37.1 IU
[2]; [8]
  ALT, mean ± S.D.: 869.8 ± 87.6 IU
  AST, mean ± S.D.: 309.8 ± 32.4 IU
[2]; conc. of test soln. 0.05 mg/dl
  ALT, mean ± S.D.: 849.1 ± 60.2 IU
  AST, mean ± S.D.: 296.3 ± 30.5 IU
[2]; conc. of test soln. 0.1 mg/dl
  ALT, mean ± S.D.: 867.7 ± 158.8 IU
  AST, mean ± S.D.: 318.8 ± 49.5 IU
Acetaldehyde toxicity; 250 mg/kg orally
  Death rate: 60%
  No. of dead animals (n/10): 6/10
Acetaldehyde toxicity; 500 mg/kg orally
  Death rate: 50%
  No. of dead animals (n/10): 5/10

## NCCS(=O)(=O)O.NCCS(=O)(=O)O.NCCS(=O)(=O)[O-].NCCS(=O)(=O)[O-].[Zn+2] [FTZ, [Bis(2-aminoethanesulfonic acid).bis(2-aminoethanesulfonate)]zinc]
[1]
  ALT, mean ± S.D.: 8597.1 ± 1450.4 IU
  AST, mean ± S.D.: 7024.7 ± 1113.4 IU
[2]; [7]
  ALT, mean ± S.D.: 414.7 ± 36.2 IU
  AST, mean ± S.D.: 198.2 ± 22.5 IU
[2]; [8]
  ALT, mean ± S.D.: 459.0 ± 93.8 IU
  AST, mean ± S.D.: 186.8 ± 35.3 IU
[2]; conc. of test soln. 0.05 mg/dl
  ALT, mean ± S.D.: 389.2 ± 7.3 IU
  AST, mean ± S.D.: 79.4 ± 12.3 IU
[2]; conc. of test soln. 0.1 mg/dl
  ALT, mean ± S.D.: 435.7 ± 25.3 IU
  AST, mean ± S.D.: 33.5 ± 3.5 IU
Acetaldehyde toxicity; 250 mg/kg orally
  Death rate: 40%
  No. of dead animals (n/10): 4/10
Acetaldehyde toxicity; 500 mg/kg orally
  Death rate: 20%
  No. of dead animals (n/10): 2/10
[3]; 50 mg/kg orally
  Incidence of ulcer: 8/8
[3]; 50 mg/kg orally, * P < 0.01
  Ulcer coefficient (mm) mean ± S.E.: 30.4 ± 7.8 mm
[3]; [9]
  Suppression %: 35.5%
[3]; 75 mg/kg orally
  Incidence of ulcer: 8/8
  Ulcer coefficient (mm) mean ± S.E.: 30.2 ± 10.2 mm
[3]; 75 mg/kg orally, vs Vehicle No. 2
  Suppression %: 42.5%
[3]; 150 mg/kg orally
  Incidence of ulcer: 8/8
[3]; 150 mg/kg orally, * P < 0.01
  Ulcer coefficient (mm) mean ± S.E.: 11.7 ± 4.7 mm
[3]; [10]
  Suppression %: 67.9%
[3]
  UD50 (mg/kg) (95% C.L.): 86.0 mg/kg
[4]; 50 mg/kg orally
  Incidence of ulcer: 8/8
  Ulcer coefficient (mm) mean ± S.E.: 28.5 ± 4.6 mm
[4]; [9]
  Suppression %: 10.7%
[4]; 100 mg/kg orally
  Incidence of ulcer: 8/8
[4]; 100 mg/kg orally, * p < 0.01
  Ulcer coefficient (mm) mean ± S.E.: 14.4 ± 3.2 mm
[4]; [11]
  Suppression %: 37.1%
[4]; 150 mg/kg orally
  Incidence of ulcer: 8/8
[4]; 150 mg/kg orally, ** p < 0.01
  Ulcer coefficient (mm) mean ± S.E.: 17.9 ± 3.2 mm
[4]; [10]
  Suppression %: 48.4%
[4]
  UD50 (mg/kg) (95% C.L.): 146.9 mg/kg
[5]; 1,250 mg/kg oral
  Nd/No (No. of dead animals / total No.): 0/3
[5]; 2,500 mg/kg oral
  Nd/No (No. of dead animals / total No.): 0/3
[5]; 5,000 mg/kg oral
  Nd/No (No. of dead animals / total No.): 0/3

## N[C@@H](CCC(=O)N[C@@H](CS)C(=O)NCC(=O)O)C(=O)O [Glutathione]
[1]
  ALT, mean ± S.D.: 12030.2 ± 1204.5 IU
  AST, mean ± S.D.: 11423.3 ± 1960.8 IU
  suppressory activity (hepatopathy in mice): none of 2-aminoethanesulfonic acid, glutathione and glycyrrhizin that were used as controls at the same dose developed suppressory activity

## CC1(C)[C@@H](O[C@H]2O[C@H](C(=O)O)[C@@H](O)[C@H](O)[C@H]2O[C@@H]2O[C@H](C(=O)O)[C@@H](O)[C@H](O)[C@H]2O)CC[C@]2(C)[C@H]3C(=O)C=C4[C@@H]5C[C@@](C)(C(=O)O)CC[C@]5(C)CC[C@@]4(C)[C@]3(C)CC[C@@H]12 [Glycyrrhizin]
[1]
  ALT, mean ± S.D.: 13362.1 ± 1753.1 IU
  AST, mean ± S.D.: 12367.6 ± 1102.1 IU
  suppressory activity (hepatopathy in mice): none of 2-aminoethanesulfonic acid, glutathione and glycyrrhizin that were used as controls at the same dose developed suppressory activity

## NCCS(=O)(=O)[O-].NCCS(=O)(=O)[O-].[Zn+2] [TTZ, Bis(2-aminoethanesulfonic acid)zinc]
[1]
  ALT, mean ± S.D.: 8899.4 ± 927.9 IU
  AST, mean ± S.D.: 7256.9 ± 1464.7 IU
  suppressory activity (hepatopathy in mice): significant suppressory activity equal to that of FTZ
[2]; [7]
  ALT, mean ± S.D.: 944.7 ± 61.7 IU
  AST, mean ± S.D.: 327.9 ± 36.6 IU
[2]; [8]
  ALT, mean ± S.D.: 637.2 ± 93.7 IU
  AST, mean ± S.D.: 125.7 ± 48.2 IU
[2]; conc. of test soln. 0.05 mg/dl
  ALT, mean ± S.D.: 649.1 ± 42.4 IU
  AST, mean ± S.D.: 68.2 ± 7.5 IU
[2]; conc. of test soln. 0.1 mg/dl
  ALT, mean ± S.D.: 525.1 ± 26.0 IU
  AST, mean ± S.D.: 44.3 ± 11.1 IU
[2]; in words
  suppressory activity (isolated liver cells): suppressory activity equal to that of FTZ but clearly superior to that of 2-aminoethanesulfonic acid alone
Acetaldehyde toxicity; 150 mg/kg orally
  Death rate: 30%
  No. of dead animals (n/10): 3/10
Acetaldehyde toxicity; 300 mg/kg orally
  Death rate: 0%
  No. of dead animals (n/10): 0/10
Acetaldehyde toxicity; in words
  protective activity against the lethal toxicity of acetaldehyde: distinct protective activity against the lethal toxicity of acetaldehyde at lower doses than FTZ, which activity was shown to be more potent than that of 2-aminoethanesulfonic acid
[3]; 12.5 mg/kg orally
  Incidence of ulcer: 8/8
  Ulcer coefficient (mm) mean ± S.E.: 32.2 ± 4.9 mm
[3]; 12.5 mg/kg orally, vs Vehicle No. 3
  Suppression %: 11.8%
[3]; 25 mg/kg orally
  Incidence of ulcer: 8/8
  Ulcer coefficient (mm) mean ± S.E.: 24.6 ± 8.8 mm
[3]; 25 mg/kg orally, vs Vehicle No. 2
  Suppression %: 63.3%
[3]; 50 mg/kg orally
  Incidence of ulcer: 5/8
[3]; 50 mg/kg orally, * P < 0.01
  Ulcer coefficient (mm) mean ± S.E.: 2.2 ± 1.1 mm
[3]; [9]
  Suppression %: 96.3%
[3]; in words, refers to both anti-ulcer tests
  suppressory activity in the antiulcer test: improved suppressory activity in the antiulcer test, as compared with FTZ used as a control
[3]
  UD50 (mg/kg) (95% C.L.): 22.8 mg/kg
[4]; 50 mg/kg orally
  Incidence of ulcer: 8/8
  Ulcer coefficient (mm) mean ± S.E.: 19.9 ± 4.6 mm
[4]; [9]
  Suppression %: 37.6%
[4]; 100 mg/kg orally
  Incidence of ulcer: 8/8
[4]; 100 mg/kg orally, * p < 0.01
  Ulcer coefficient (mm) mean ± S.E.: 9.8 ± 2.3 mm
[4]; [11]
  Suppression %: 57.2%
[4]; 150 mg/kg orally
  Incidence of ulcer: 8/8
[4]; 150 mg/kg orally, ** p < 0.01
  Ulcer coefficient (mm) mean ± S.E.: 7.6 ± 1.4 mm
[4]; [10]
  Suppression %: 78.1%
[4]
  UD50 (mg/kg) (95% C.L.): 72.8 mg/kg
[5]; 1,250 mg/kg oral
  Nd/No (No. of dead animals / total No.): 0/3
[5]; 2,500 mg/kg oral
  Nd/No (No. of dead animals / total No.): 0/3
[5]; 5,000 mg/kg oral
  Nd/No (No. of dead animals / total No.): 0/3
[5]; doses up to 5,000 mg/kg oral, in words
  death of animals: did not cause any animal to die
[6]
  anti-hepatitis, liver function improving and anti-ulcer activity: more markedly potent anti-ulcer activity as well as comparable anti-hepatitis and liver function improving activities
